Assays:
ATP synthase (Complex V) = molecular target: T1, ATP synthase (Complex V) (Mus musculus, UniProt P56480); experiment: Mitochondrial coupling assay / respiratory control ratio; type: biochemical; conditions: mouse liver mitochondria
T1 construct: Mitochondria were isolated from mouse liver as described above; from tissue; host or cells: isolated mouse liver mitochondria
Experimental: Mitochondrial RCR was analyzed using isolated mouse liver mitochondria (see Brand, et al. Biochem J 435, 297-312 (2011) and references therein). Mitochondria were isolated from mouse liver as described above. The final mitochondrial pellet was resuspended in 30 μl of MAS buffer (70 mM sucrose, 220 mM mannitol, 10 mM KH2PO4, 5 mM MgCl2, 2 mM HEPES, 1 mM EGTA, and 0.2% fatty acid free BSA, pH 7.2).
Isolated mitochondrial respiration was measured by running coupling and electron flow assays as described (Rogers, et al. PLoS One 6, e21746 (2011)). For the coupling assay, 20 μg of mitochondria in complete MAS buffer (MAS buffer supplemented with 10 mM succinate and 2μM rotenone) were seeded into a XF24 Seahorse plate by centrifugation at 2,000×g for 20 minutes at 4° C. […] Mitochondrial respiration begins in a coupled State 2; State 3 is initiated by 2 mM ADP; State 4o (oligomycin-insensitive, i.e., Complex V-independent) is induced by 2.5 μM oligomycin and State 3u (FCCP uncoupled maximal respiratory capacity) by 4 μM FCCP. Finally, 1.5 μg/ml antimycin A was injected at the end of the assay.

[1] = tested on: electron transport chain (Complex I, Complex II, Complex IV); experiment: Mitochondrial electron flow assay; type: biochemical, mouse
Experimental: Mitochondria were isolated from mouse liver as described above.
For the electron flow assay, the MAS buffer was supplemented with 10 mM sodium pyruvate (Complex I substrate), 2 mM malate (Complex II inhibitor), and 4 μM FCCP, and the mitochondria are seeded the same way as described for the coupling assay. After basal readings, the sequential injections were as follows: 2 μM rotenone (Complex I inhibitor), 10 mM succinate (Complex II substrate), 4 μM antimycin A (Complex III inhibitor), and 10 mM/100 μM ascorbate/tetramethylphenylenediamine (Complex IV substrate).

C. elegans [2] = experiment: C. elegans lifespan analysis; type: in vivo, Caenorhabditis elegans; conditions: for effect on lifespan of adult C. elegans (in words): adult worms, metabolites at 8 mM; for lifespan of subjects (in words): experiments similar to those for α-KG and 2-HG compounds, data not shown; for mean lifespan: 8 mM
Experimental: Lifespan assays were conducted at 20° C. on solid nematode growth media (NGM) using standard protocols and were replicated in at least two independent experiments. […] All compounds were mixed into the NGM media after autoclaving and before solidification of the media. Assay plates were seeded with OP50 (or a designated RNAi feeding clone, see below). Worms were moved to new assay plates every 4 days (to ensure sufficient food was present at all times and to reduce the risk of mold contamination). […] For analysis concerning mutant strains, the corresponding parent strain was used as a control in the same experiment. […]
Lifespan data is provided in FIG. 13, including sample sizes. The sample size was chosen on the basis of standards done in the field in published manuscripts. No statistical method was used to predetermine the sample size. Animals were assigned randomly to the experimental groups. […] Lifespan data were analyzed using GraphPad Prism; P-values were calculated using the log-rank (Mantel-Cox) test.

U87 cells [3] = experiment: Assay for ATP levels in U87 cells; type: cell-based, human; conditions: mitochondrial oxidative phosphorylation conditions, 2 hours
Experimental: For 2-HG experiments, U87 cells were seeded in 96-well plates at 2×10^4 cells per well and treated with indicated compound for 2 hours in triplicate. ATP levels were measured using the CellTiter-Glo luminescent ATP assay (Promega, G7572); luminescence was read using Analyst HT (Molecular Devices). […] Statistical analysis was performed using GraphPad Prism (unpaired t-test).

mTOR = experiment: Assay for mammalian TOR (mTOR) pathway activity; type: cell-based, human; conditions: U87 cells
Description: Specific antibodies used: P-S6K T389 (Cell Signaling Technology, 9234), S6K (Cell Signaling Technology, 9202S), P-4E-BP1 S65 (Cell Signaling Technology, 9451S), 4E-BP1 (Cell Signaling Technology, 9452S), P-AKT S473 (Cell Signaling Technology, 4060S), AKT (Cell Signaling Technology, 4691S), P-ULK1 S757 (Cell Signaling Technology, 6888), ULK1 (Cell Signaling Technology, 4773S), and GAPDH (Santa Cruz Biotechnology, 25778).

AMPK = AMPK (T172) phosphorylation by Western blotting; type: cell-based, human; conditions: WI-38 cells; higher concentration of octyl α-KG
Experimental: Western blotting was performed with specific antibodies against P-AMPK T172 (Cell Signaling Technology, 2535S) and AMPK (Cell Signaling Technology, 2603S). […] Number of GFP::LGG-1 containing puncta was quantitated using ImageJ. Bars indicate the mean. […] HEK-293 (Panel d) or HeLa (Panel e) cells were lysed in M-PER buffer (Thermo Scientific, 78501) with the addition of protease inhibitors (Roche, 11836153001) and phosphatase inhibitors (50 mM NaF, 10 mM β-glycerophosphate, 5 mM sodium pyrophosphate, 2 mM Na3VO4). Protein concentration of the lysate was measured by BCA Protein Assay kit (Pierce, 23227). […] Pronase (Roche, 10165921001) digestions were performed for 20 minutes at room temperature, and stopped by adding SDS loading buffer and immediately heating at 95° C. for 5 minutes (for Panel d) or 70° C. for 10 minutes (for Panel e). Samples were subjected to SDS-PAGE on 4-12% Bis-Tris gradient gel (Invitrogen, NP0322BOX) and Western blotted with specific antibodies against ATP5B (Santa Cruz, sc58618), mTOR (Cell Signaling Technology, 2972), or GAPDH (Ambion, AM4300). ImageJ was used to quantify the mTOR/GAPDH and ATP5B/GAPDH ratios.

C. elegans [4] = experiment: Assay for autophagy in C. elegans (GFP::LGG-1 puncta); type: in vivo, Caenorhabditis elegans
Experimental: Statistical analysis was performed using Microsoft Excel (t-test, two-tailed, two-sample unequal variance).

U87 cells [5] = experiment: Cell growth and viability assays in U87 cells; type: cell-based, human
Experimental: IDH1(R132H) mutant or IDH1(WT) expressing U87 cells were as reported (Li, et al. Neuro Oncol 15, 57-68). […] All the cells were cultured at 37° C. and 5% CO2. Cells were transfected with indicated siRNA using Thermo Scientific DharmaFECT Transfection Reagent 1 by following the manufacturer's instructions.
Cells were seeded in 12-well plates and after overnight incubation were treated with indicated concentrations of each compound. After harvesting, cells were stained by Acridine Orange (AO) and DAPI. Cell number and viability were measured based on AO and DAPI fluorescence measured by NC3000 (Chemometec) following the manufacturer's instructions.

[6] = tested on: ADP import into the mitochondria; experiment: Assay for ADP import; type: biochemical; conditions: mouse liver mitochondria, 600 μM; (R) P=0.4237, (S) P=0.1623
Experimental: Freshly prepared mice liver mitochondria were suspended at 1 μg/μl in medium consisting of 220 mM mannitol, 70 mM sucrose, 2 mM HEPES, 2.74 μM antimycin A, 5 μM rotenone, 1 mM
EGTA, and 10 mM potassium phosphate buffer, pH 7.4. The mitochondria suspension was incubated with designated drug for 30 minutes in 37° C. After incubation, the suspension was transferred to ice for 10 minutes incubation. Afterwards, 100 μM [^3H]ADP (specific radioactivity, 185 kBq/pmol) was added, and the mixture was immediately vortexed and incubated for 20 seconds on ice. The reaction was terminated by addition of 10 μM carboxyatractyloside, and the mixture was centrifuged at 10,000 g for 10 minutes at 4° C. After centrifuge, the supernatant was collected for reading and the pellet was washed twice with the same medium supplemented with 10 μM carboxyatractyloside. After washing, the pellet was lysed by the addition of 0.2 ml of 1% SDS. The radioactivity of the lysate and supernatant was determined by TRI-CARB 2300 TR liquid scintillation analyzer. The ADP-ATP translocation rate was determined by the ratio of the pellet versus the sum reading of the pellet and supernatant.

ATP5B = molecular target: T2, ATP5B (Homo sapiens, UniProt P06576); experiment: DARTS (drug affinity responsive target stability) with Western blotting; type: binding; conditions: human cell lysates, Pronase digestion
T2 construct: HeLa cells were lysed in M-PER buffer; endogenous in cells; host or cells: HeLa (alpha-KG); U87 (2-HG)
Experimental: Target identification using DARTS was conducted in accordance with methods know in the art. […] The resulting digests were separated by SDS-PAGE and visualized using SYPRO Ruby Protein Gel Stain (Invitrogen, S12000).
GAPDH (Ambion, AM4300) was used as a negative control.
For 2-HG experiments, DARTS was performed as described above.

U87 cells [7] = experiment: Oxygen consumption rate in U87 cells (2-HG experiments); type: cell-based, human
Experimental: For 2-HG experiments, OCR and ECAR measurements were made using a Seahorse XF-24 analyzer (Seahorse Bioscience) (Wu, et al. Am J Physiol Cell Physiol 292, C125-136 (2007)). U87 cells were seeded in Seahorse XF-24 cell culture microplates at 50,000 cells per well in DMEM supplemented with 10% FBS and either 10 mM glucose or 10 mM galactose, and incubated 0/N at 37° C. in 5% CO2. […] Cells were washed in unbuffered DMEM (pH 7.4, 10 mM glucose) immediately prior to measurement, and maintained in this buffer with indicated concentrations of compound. OCR or ECAR were measured 3 times under basal conditions and normalized to protein concentration per well. Statistical analysis was performed using GraphPad Prism (unpaired t-test, two-tailed, two-sample unequal variance).

U87 cells [8] = tested on: U87 cells
Experimental: Cells were cultured for 24 hours, rinsed with PBS, and medium containing [1,2-^13C]glucose (1 g/L) added. […] Cells were scraped off, transferred to an Eppendorf tube, and 10 nmol norvaline as well as 400 ml chloroform added to each sample. For the metabolite extraction, samples were vortexed for 5 minutes on ice, spun down, and the aqueous layer transferred into a glass vial and dried. Metabolites were resuspended in 70% ACN, and 5 ml sample loaded onto a Phenomenex Luna 3u NH2 100A (150×2.0 mm) column. The chromatographic separation was performed on an UltiMate 300RSLC (Thermo Scientific) with mobile phases A (5 mM NH4AcO, pH 9.9) and B (ACN) and a flow rate of 300 ml / minutes. […] TraceFinder 3.1 (Thermo Scientific) was used to quantify metabolites as area under the curve using retention time and accurate mass measurements (≤3 ppm). Relative amounts of metabolites were calculated by summing up all isotopomers of a given metabolite.

T2 sequence (P06576 48-529): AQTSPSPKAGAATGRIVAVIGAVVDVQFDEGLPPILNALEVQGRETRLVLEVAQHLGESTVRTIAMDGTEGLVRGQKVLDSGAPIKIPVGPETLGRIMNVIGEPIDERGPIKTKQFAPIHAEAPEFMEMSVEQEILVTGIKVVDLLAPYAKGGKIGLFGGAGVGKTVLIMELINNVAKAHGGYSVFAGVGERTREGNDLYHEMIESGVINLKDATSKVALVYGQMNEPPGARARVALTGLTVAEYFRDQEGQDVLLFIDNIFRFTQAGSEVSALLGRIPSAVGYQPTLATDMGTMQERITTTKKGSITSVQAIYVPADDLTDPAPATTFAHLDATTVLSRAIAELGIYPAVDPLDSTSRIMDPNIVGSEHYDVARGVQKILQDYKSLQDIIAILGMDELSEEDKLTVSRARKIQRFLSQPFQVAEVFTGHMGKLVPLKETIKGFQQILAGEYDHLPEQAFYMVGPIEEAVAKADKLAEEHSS

CCCCCCCCOC(=O)CCC(=O)C(=O)O [5-octyl α-KG, 5-(Octyloxy)-2,5-dioxopentanoic acid]
coupling assay, 1-octyl versus 5-octyl ester (ATP synthase (Complex V)): identical results | electron flow assay, 1-octyl versus 5-octyl ester ([1]; mouse liver mitochondria): identical results

CC[C@H]1/C=C/C=C/C[C@@H](C)[C@H](O)[C@@](C)(O)C(=O)[C@@H](C)[C@H](O)[C@@H](C)C(=O)[C@@H](C)[C@H](O)[C@@H](C)/C=C/C(=O)O[C@@H]2[C@H](C)[C@H](CC1)O[C@]1(CC[C@H](C)[C@H](C[C@@H](C)O)O1)[C@H]2C [oligomycin, reference compound]
increase of mean lifespan of N2 worms (C. elegans [2]; 40 μM, from young adult stage): 32.3% | effect on lifespan of adult C. elegans (in words) (C. elegans [2]): extends the lifespan | ATP content (U87 cells [3]): decreased | phosphorylation of mTOR substrates (mTOR): decreased | P-AMPK (T172) (AMPK): increased | autophagy (GFP::LGG-1 puncta) (C. elegans [4]; CeTOR(RNAi) worms, oligomycin): does not augment | autophagy (GFP::LGG-1 puncta) (C. elegans [4]; L3 epidermis, oligomycin 40, α-KG 8 mM, versus vehicle): significantly higher

CCCCCCCCOC(=O)[C@H](O)CCC(=O)O [octyl (R)-2-HG, 1-Octyl (R) 2-hydroxypentanedioate]
viability upon glucose starvation (U87 cells [5]; 400 μM and 800 μM): decreased | ADP import [6]: does not affect

N[C@H](CCC(=O)O)C(=O)O [D-glutamate]
lifespan of subjects (in words) (C. elegans [2]): increases the lifespan

O=C(O)CC[C@@H](O)C(=O)O [(R)-2-HG, 2-hydroxyglutaric acid]
mean lifespan (C. elegans [2]; FIG. 14 Panel B, vehicle 14.0): 20.0 days of adulthood | effect on lifespan of adult C. elegans (in words) (C. elegans [2]): increase the lifespan | binding to ATP5B by DARTS (ATP5B): bind

N[C@@H](CCC(=O)O)C(=O)O [L-glutamate]
lifespan of subjects (in words) (C. elegans [2]): increases the lifespan

CC(C)C[C@H](N)C(=O)O [Leu]
mean lifespan (C. elegans [2]; FIG. 14 Panel B, vehicle 14.0): 13.2 days of adulthood

O=C([O-])CCC(=O)C(=O)[O-].[Na+].[Na+] [Na2α-KG]
mean lifespan (C. elegans [2]; FIG. 14 Panel C, vehicle 15.7): 21.5 days of adulthood

CCCCCCCCOC(=O)[C@@H](O)CCC(=O)O [octyl (S)-2-HG, 1-Octyl (S) 2-hydroxypentanedioate]
viability upon glucose starvation (U87 cells [5]; 400 μM and 800 μM): decreased | ADP import [6]: does not affect

O=C(O)CC[C@H](O)C(=O)O [(S)-2-HG, 2-hydroxyglutaric acid]
mean lifespan (C. elegans [2]; FIG. 14 Panel C, vehicle 15.7): 20.7 days of adulthood | effect on lifespan of adult C. elegans (in words) (C. elegans [2]): increase the lifespan | binding to ATP5B by DARTS (ATP5B): bind

CCCCCCCCOC(=O)C(O)CCC(=O)O (stereo not drawn) [octyl 2-HG]
ATP content (U87 cells [3]): decreased | ATP synthase dependent (oligomycin sensitive) oxygen consumption rate (U87 cells [7]; U87 cells): decreased | respiration as indicated by OCR (U87 cells [7]; U87 cells in glucose media): decreased | state 3 respiration (ATP synthase (Complex V); 600 μM, octanol vehicle): decreases | state 4o or 3u respiration (ATP synthase (Complex V); 600 μM, octanol vehicle): not | Complex I, Complex II, or Complex IV respiration ([1]; 30 minute treatment, 600 μM): No difference | growth rate (U87 cells [5]; glucose medium, to a lesser extent, not shown): reduced | growth rate (U87 cells [5]; glucose-free medium, 400 μM and 800 μM): decreased growth rate | accumulation of 2-HG in treated cells (U87 cells [8]): 20-100 fold

CSCC[C@H](N)C(=O)O [Met]
mean lifespan (C. elegans [2]; FIG. 14 Panel B, vehicle 14.0): 14.7 days of adulthood
